Reference: US20250326792A1, “A FORMULATION FOR TREATMENT OF PIGMENTARY DISORDERS” (priority 2022, published 2025)
PHPP = 3-Phenylpyrazolo[3,4-d]pyrimidine (N-terminal cap)

What was measured:
B16F10 cells = test: Cell viability (XTT assay) in B16F10 cells; type: cell-based; settings: 1000 μg/ml for about 48 hours
Procedure: Culture and maintenance of cell lines: B16F10 cells were cultured in RPMI containing 10% fetal bovine serum, 100 units per millilitre (U/mL) penicillin, 0.1 mg/mL streptomycin, and 0.25 microgram per millilitre (μg/mL) amphotericin B at 37 degrees Celsius in a humidified 95% air/5% CO2 incubator. Drug treatment was done 24 hours after seeding. Cells were harvested 48 hours later and melanin content and tyrosinase activity determined in triplicate. […] […]
B16F10 and NHEM cells were sub-cultured into 96-well culture plates at a density of 1×10^4 cells/well in 100 μL medium and after about 24 hours of incubation, the medium was discarded and replaced with 100 μL of a suitable medium (RPMI for B16F10 and DMEM for NHEM with 1% FBS) for starvation and then treated in the presence or absence of various concentrations of test compound and positive controls (IBMX and α-MSH). […] At the end of the incubation, about 50 μL of XTT test solution prepared by mixing about 5 mL of XTT-labeling reagent and about 100 μL of electron coupling reagent is added to each well and after about 4 hours of incubation at 37° C. and a about 5% CO2 incubator, the absorbance was measured on an ELISA reader at a test wavelength of 490 nm.

Tyrosinase [1] = test: Tyrosinase activity assay (L-DOPA) in NHEM cells; type: cell-based, Human; settings: for % increase in tyrosinase activity compared to control / Tyrosinase activity: TYROSINASE ACTIVITY table
Procedure: (§1) Culture and maintenance of cell lines: B16F10 cells were cultured in RPMI containing 10% fetal bovine serum, 100 units per millilitre (U/mL) penicillin, 0.1 mg/mL streptomycin, and 0.25 microgram per millilitre (μg/mL) amphotericin B at 37 degrees Celsius in a humidified 95% air/5% CO2 incubator. Drug treatment was done 24 hours after seeding. Cells were harvested 48 hours later and melanin content and tyrosinase activity determined in triplicate. NHEM cells were cultured in DMEM containing 10% fetal bovine serum, 100 units per milliliter (U/mL) penicillin, 0.1 mg/mL streptomycin, and 0.25 microgram per millilitre (μg/mL) amphotericin B at 37 degrees Celsius in a humidified 95% air/5% CO2 incubator. Drug treatment was done 24 hours after seeding. Cells were harvested 48 hours later and melanin content and tyrosinase activity determined in triplicate.
(§2) IS103 was dissolved in water for injection or DMSO to prepare stock solution of about 50 mg/ml. The stock solution was used for preparation of subsequent dilutions in solvent to achieve working dilutions for treatment ranging 0.1 μg/ml to 1000 μg/ml.
(§3) Tyrosinase activity was determined using L-DOPA as a substrate. Briefly, B16F10 and NHEM cells were seeded in a 6-well plate (2×10^4 cells/well) and incubated for overnight. The cells were then treated with or without the test compounds for 46 hours and were washed twice with ice cold PBS and extracted by sonication in 100 μl of 0.1M Tris-HCl buffer (pH 7.2) containing 1% Nonidet P-40, 0.01% SDS, 100 μM phenyl methyl sulfonyl fluoride, and 1 μg/ml aprotinin and then centrifuged at 10,000 g for about 10 minutes at 4° C. The supernatants collected were used for enzyme assay and its protein content was estimated by method of Bradford using BSA as standard. Samples of cell extract supernatant were incubated in duplicate for 1 hour at 37° C. in 1 ml of 0.1M sodium phosphate buffer (pH 7.4) containing 0.1% L-DOPA. The absorbance was then monitored at 450 nm and compared with purified mushroom tyrosinase (Sigma). The standard curve was prepared limiting linearity within the range of experimental value.

Tyrosinase [2] = test: Tyrosinase activity assay (L-DOPA) in B16F10 cells; type: cell-based; settings: for % increase in tyrosinase activity compared to control / Change in tyrosinase activity: TYROSINASE ACTIVITY table
Procedure: as §1, §2, §3

[3] = Solubility of synthetic peptide IS103; type: physicochemical

For “PHPP-Tyr-Arg-Ser-Arg-Lys-Tyr-Ser-Ser-Trp-Tyr-NH2 ({PHPP}-YRSRKYSSWY-NH2) [IS103]”, which “effect on cell viability” value (B16F10 cells) is on record?
The value was “did not exert any significant effect on cell viability”.

What about the “increase in Tyrosinase activity when compared to control” value (Tyrosinase [1]; NHEM CELLS, 250 μg/mL) of the same substance?
Its value is 55.67%.

What about the “effect on tyrosinase activity (FIG. 7)” value (Tyrosinase [1]; NHEM cells, different concentrations, about 48 hours) of the same substance?
The value was “increased tyrosinase activity”.

And the “% increase in tyrosinase activity compared to control” value (shortened to “% increase in tyrosinase activity”) (Tyrosinase [1]; NHEM CELLS, 0.1 μg/mL)?
The value was −0.67%.

What about the Tyrosinase activity (Tyrosinase [1]; NHEM CELLS, 0.1 μg/mL) of the same substance?
The Tyrosinase activity was 13.7 ± 1.24.

And the “% increase in tyrosinase activity” value (Tyrosinase [1]; NHEM CELLS, 1 μg/mL)?
The value was 3.67%.

And the Tyrosinase activity (Tyrosinase [1]; NHEM CELLS, 1 μg/mL)?
The Tyrosinase activity was 18.0 ± 3.30.

And the “% increase in tyrosinase activity” value (Tyrosinase [1]; NHEM CELLS, 10 μg/mL)?
Its value is 10.67%.

What about the Tyrosinase activity (Tyrosinase [1]; NHEM CELLS, 10 μg/mL) of the same substance?
Its Tyrosinase activity is 25.0 ± 0.80.

And the “% increase in tyrosinase activity” value (Tyrosinase [1]; NHEM CELLS, 50 μg/mL)?
The value was 22.67%.

What about the Tyrosinase activity (Tyrosinase [1]; NHEM CELLS, 50 μg/mL) of the same substance?
Its Tyrosinase activity is 37.0 ± 3.00.

And the “% increase in tyrosinase activity” value (Tyrosinase [1]; NHEM CELLS, 100 μg/mL)?
Its value is 45.33%.

And the Tyrosinase activity (Tyrosinase [1]; NHEM CELLS, 100 μg/mL)?
The Tyrosinase activity was 59.7 ± 1.90.

What about the “% increase in tyrosinase activity” value (Tyrosinase [1]; NHEM CELLS, 250 μg/mL) of the same substance?
Its value is 55.67%.

And the Tyrosinase activity (Tyrosinase [1]; NHEM CELLS, 250 μg/mL)?
Its Tyrosinase activity is 70.0 ± 2.20.

And the “% increase in tyrosinase activity” value (Tyrosinase [1]; NHEM CELLS, 500 μg/mL)?
Its value is 61%.

And the Tyrosinase activity (Tyrosinase [1]; NHEM CELLS, 500 μg/mL)?
Its Tyrosinase activity is 75.3 ± 2.50.

And the “% increase in tyrosinase activity” value (Tyrosinase [1]; NHEM CELLS, 1000 μg/mL)?
The value was 61%.

What about the Tyrosinase activity (Tyrosinase [1]; NHEM CELLS, 1000 μg/mL) of the same substance?
The Tyrosinase activity was 75.3 ± 2.60.

What about the “increase in Tyrosinase activity when compared to control” value (Tyrosinase [2]; B16F10 CELLS, 250 μg/mL) of the same substance?
Its value is 55.33%.

And the “effect on tyrosinase activity (FIG. 6)” value (Tyrosinase [2]; B16F10 cells, different concentrations, about 48 hours)?
Its value is “increased tyrosinase activity”.

And the “% increase in tyrosinase activity” value (Tyrosinase [2]; B16F10 CELLS, 0.1 μg/mL)?
The value was 0%.

What about the “Change in tyrosinase activity” value (Tyrosinase [2]; B16F10 CELLS, 0.1 μg/mL) of the same substance?
The value was 15.0 ± 1.60.

What about the “% increase in tyrosinase activity” value (Tyrosinase [2]; B16F10 CELLS, 1 μg/mL) of the same substance?
The value was 3%.

And the “Change in tyrosinase activity” value (Tyrosinase [2]; B16F10 CELLS, 1 μg/mL)?
The value was 18.0 ± 2.20.

And the “% increase in tyrosinase activity” value (Tyrosinase [2]; B16F10 CELLS, 10 μg/mL)?
Its value is 10.33%.

And the “Change in tyrosinase activity” value (Tyrosinase [2]; B16F10 CELLS, 10 μg/mL)?
The value was 25.3 ± 1.20.

What about the “% increase in tyrosinase activity” value (Tyrosinase [2]; B16F10 CELLS, 50 μg/mL) of the same substance?
Its value is 24%.

And the “Change in tyrosinase activity” value (Tyrosinase [2]; B16F10 CELLS, 50 μg/mL)?
The value was 39.0 ± 2.20.

And the “% increase in tyrosinase activity” value (Tyrosinase [2]; B16F10 CELLS, 100 μg/mL)?
The value was 42.33%.

And the “Change in tyrosinase activity” value (Tyrosinase [2]; B16F10 CELLS, 100 μg/mL)?
The value was 57.3 ± 4.20.

What about the “% increase in tyrosinase activity” value (Tyrosinase [2]; B16F10 CELLS, 250 μg/mL) of the same substance?
Its value is 55.33%.

What about the “Change in tyrosinase activity” value (Tyrosinase [2]; B16F10 CELLS, 250 μg/mL) of the same substance?
The value was 70.3 ± 1.70.

And the “% increase in tyrosinase activity” value (Tyrosinase [2]; B16F10 CELLS, 500 μg/mL)?
The value was 62%.

What about the “Change in tyrosinase activity” value (Tyrosinase [2]; B16F10 CELLS, 500 μg/mL) of the same substance?
The value was 77.0 ± 3.00.

What about the “% increase in tyrosinase activity” value (Tyrosinase [2]; B16F10 CELLS, 1000 μg/mL) of the same substance?
The value was 60.33%.

What about the “Change in tyrosinase activity” value (Tyrosinase [2]; B16F10 CELLS, 1000 μg/mL) of the same substance?
The value was 75.3 ± 2.50.

And the Solubility [3]?
Its Solubility is “soluble in water”.
